Assay results from patent US11471458B2, “Diacylglycerol acyl transferase 2 inhibitor” (Pfizer Inc., priority 2019, dated 2022).
≈ marks a conversion by molar mass, not a printed value. Structures can show the parent of a compound that is named as a salt.

Columns and labels:
[1] = Intrinsic clearance in human liver microsomes; format: in vitro ADME; settings: human, pooled human liver microsomes (50 donors), pH 7.4, human liver microsome assay; 1 μM test compound, 0.806 mg/mL protein, NADPH, pH 7.4, 37° C.; mean +/− STD Dev; read-out: CLint (μL/min/mg) (+/− STD Dev)
Experimental: The incubations were conducted at 37° C. […] (Sorvall RC 3C Plus, Thermo Scientific, Waltham, Mass.).

[2] = High throughput determination of intrinsic clearance in human hepatocytes; format: in vitro ADME; settings: human, pooled cryopreserved human hepatocytes (10 donors), high throughput human hepatocyte assay; 0.5 million cells/mL, 1 μM test compound, 37° C.; mean +/− Std Dev; read-out: CLint (μL/min/10^6 cells) (+/− Std Dev)
Experimental: The incubation was carried out at 37° C. […] The samples were centrifuged (Eppendorf, Hauppauge, N.Y.) at 3000 rpm for 5 min at 4° C.

[3] = Determination of pKa (capillary electrophoresis, Analiza, Inc.); format: physicochemical; settings: mean, read-out: Basic pKa (most basic pKa)
[4] = Intrinsic clearance in human hepatocytes (relay method); format: in vitro ADME; settings: human, cryopreserved human hepatocytes (suspension, relay method), 20 h total incubation, mean +/− standard deviation, read-out: CLint (+/− Std Dev), relay hepatocyte assay
Experimental: For intrinsic clearance (CLint) measurement, hepatocyte relay method was used (Di, L., et al. 2012, Drug Metab. Dispos., 40, 1860-1865 and Di, L., et al. 2013, Drug Metab. Dispos., 41, 2018-2023). Cryopreserved human hepatocytes (Lot DCM from BioreclamationlVT) were used. Upon thawing, the hepatocytes were resuspended in Williams' medium E (custom formula number 91-5233EA; Gibco, Grand Island, N.Y.) supplemented with Hepes and Na2CO3. […] The plates were incubated at 37° C. with 95% air/5% CO2, 75% relative humidity for 4 h at 150 rpm in a humidified incubator. At time 0 and 4 h, 25 μL of hepatocyte suspension was removed from the incubation and added to 50 μL of ice-cold acetonitrile (containing metoprolol, indomethacin, and terfenadine as internal standards) to quench the reaction. The samples were centrifuged (Eppendorf, Hauppauge, N.Y.) at 3000 rpm (1439×g) for 10 min at room temperature, and 50 μL of supernatant was transferred to a clean plate, dried completely, and reconstituted before liquid chromatography/tandem mass spectrometry (LC-MS/MS) analysis. The remaining hepatocyte suspensions in the incubation plate were centrifuged (3000 rpm, 1439×g, 10 min, room temperature). The supernatant of 300 μL was transferred to a clean 24-well plate and stored at −80° C. until the next relay experiment. For the second relay experiment, the supernatant plates were warmed first to room temperature for 30 minutes, then to 37° C. for 30 min, and hepatocytes were added to the samples to give a final cell density of 0.5 million cells/mL. The plates were incubated at 37° C. for 4 h, sampled, and processed as described above. Five relays were performed to give a total incubation time of 20 h, with sampling points at (0, 4, 8, 12, 16 and 20 h). The concentrations of test compound determined at each time point by the LC-MS/MS analysis were used to calculate the intrinsic clearance.

[5] = Thermodynamic solubility in various biorelevant media; format: physicochemical; settings: crystalline solid; for solubility at 25 h: 25 °C, thermodynamic from solid
Experimental: The solubility of active pharmaceutical ingredients is an important characteristic in determining biological performance and ease of formulation during drug development, with high solubility being preferred (Klein, S. 2010, The AAPS Journal, 12, 397-406; Di, L., et al 2012, Drug Disc. Today, 17. 486-495). A test sample of crystalline solid (˜7 mg) was combined in a vial with 1 mL of the relevant buffer solution and the mixture vortexed to combine. If the solid dissolved completely, additional solid was added with vortexing until a saturated solution was obtained. The saturated solution/solid mixture was capped and subjected to temperature cycling as follows: 1 min at 25° C., 8 h at 40° C., 5 h at 15° C. and 12 h at 25° C. The mixture was filtered in a centrifugal filtration device (0.22 μm PVDF filter, MilliporeSigma, Milwaukee, Wis.) at 13,000 rpm and the concentration of the test compound in the filtrate was determined by HPLC/UPLC with reference to a three point standard curve. Phosphate buffered saline (PBS, pH 6.8, 50 mM phosphate buffer, 250 mM NaCl). Simulated gastric fluid (SGN pH 1.2, USP recipe). Fasted state simulated intestinal fluid (FaSSIF, 3 mM sodium taurocholate, 0.75 mM phospholipid from soybean lecithin, 50 mM phosphate buffer, ionic strength adjusted to 250 mM with NaCl, pH 6.8) and fed state simulated intestinal fluid (FeSSIF, 15 mM sodium taurocholate, 3.75 mM phospholipid from soybean lecithin, 144 mM acetic acid, 50 mM phosphate buffer, ionic strength adjusted to 250 mM with NaCl, pH 6.8).

human DGAT2 (hDGAT2) = human DGAT2 (hDGAT2) (Homo sapiens (Human), UniProt Q96PD7); test: In vitro DGAT2 assay, determination of IC50 values for DGAT2 inhibitors; format: biochemical; settings: hDGAT2 membrane fraction; geometric mean
Sequence of human DGAT2 (hDGAT2) (Q96PD7 whole entry): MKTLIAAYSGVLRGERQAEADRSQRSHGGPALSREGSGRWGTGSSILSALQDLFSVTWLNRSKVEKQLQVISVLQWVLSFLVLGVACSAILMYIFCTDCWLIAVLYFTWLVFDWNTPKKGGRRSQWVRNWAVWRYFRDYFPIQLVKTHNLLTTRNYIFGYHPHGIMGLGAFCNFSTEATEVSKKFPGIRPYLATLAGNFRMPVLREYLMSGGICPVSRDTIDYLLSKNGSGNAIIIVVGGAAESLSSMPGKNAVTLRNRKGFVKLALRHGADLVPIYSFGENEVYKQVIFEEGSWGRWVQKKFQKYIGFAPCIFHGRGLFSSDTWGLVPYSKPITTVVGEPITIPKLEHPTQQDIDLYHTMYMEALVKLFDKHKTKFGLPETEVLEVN
Experimental: Recombinant baculovirus for the FLAG-tagged hDGAT2 was generated in SF9 insect cells using Bac-to-Bac baculovirus expression system (Invitrogen) according to the manufacturer's protocol. For the expression of hDGAT2, SF9 cells (20 L) grown in Sf900II media were infected with hDGAT2 baculovirus at a multiplicity of infection of 1 in a Wave Bioreactor System 20/50P wave bag (GE Healthcare). After 40 hours of infection, the cells were then harvested by centrifugation at 5,000×g. The cell pellets were washed by resuspending in phosphate buffered saline (PBS) and collected by centrifugation at 5,000×g. The cell paste was flash frozen in liquid N2 and stored at −80° C. until needed. All operations below were at 4° C. unless otherwise noted. The cells were resuspended in lysis buffer (50 mM Tris-HCl, pH 8.0, 250 mM sucrose) including 1 mM ethylenediaminetetraacetic acid (EDTA) and the complete protease inhibitor cocktail (Roche Diagnostics) at a ratio of 3 mL buffer per 1 g cell paste. The cells were lysed by dounce homogenizer. The cell debris was removed by centrifugation at 1,000×g for 20 min, and the supernatant was centrifuged at 100,000×g for 1 hour. The resulting pellet was rinsed three times by filling ultracentrifuge tubes to the top with ice cold PBS before decanting. The washed pellet was resuspended with gentle stirring for 1 hour in lysis buffer containing 8 mM 3-[(3-cholamidopropyl)dimethylammonio]-1-propanesulfonate (CHAPS) at a ratio of 1 mL buffer per 1 g of original cell paste and centrifuged again at 100,000×g for 1 hour. The resulting supernatant was aliquotted, flash frozen in liquid N2, and stored at −80° C. until use.
To 1 μL of compounds dissolved in 100% DMSO and spotted at the bottom of each well, 5 μL of 0.04% bovine serum albumin (BSA) (fatty acid free, Sigma Aldrich) was added and the mixture was incubated at room temperature for 15 minutes. hDGAT2 membrane fractions were diluted in 100 mM Hepes-NaOH, pH 7.4, 20 mM MgCl2 containing 200 nM methyl arachidonyl fluorophosphonate (Cayman Chemical; dried from ethyl acetate stock solution under argon gas and dissolved in DMSO as 5 mM stock). 10 μL of this enzyme working solution was added to the plates and incubation continued for 2 hours at room temperature. […] Plates were centrifuged at 2,000×g for 1 minute in an Allegra 6R Centrifuge (Beckman Coulter) and then were sealed again with fresh covers before reading in a 1450 Microbeta Wallac Trilux Scintillation Counter (Perkin Elmer). DGAT2 activity was measured by quantifying the generated product [^14C]tridecanoylglycerol in the upper organic phase. […]

| microsomal CLint at 1 μM [1] [µL/min/mg] | hepatocyte CLint at 1 μM [2] [µL/min/1e6 cells] | pKa [3] | hepatocyte CLint at 1 μM [4] [µL/min/1e6 cells] | IC50 (human DGAT2 (hDGAT2)) [nM] | Compound | also measured |
| --- | --- | --- | --- | --- | --- | --- |
| < 14 | 12 | – | – | – | CCOc1cccnc1Oc1cncc(-c2ncc(C(=O)N[C@H]3CCC(C(F)(F)F)NC3)cn2)c1 (mixture of isomers) [Example 8, rac-2-{5-[(3-ethoxypyridin-2-yl)oxy]pyridin-3-yl}-N-[(3R,6S)-6-(trifluoromethyl)piperidin-3-yl]pyrimidine-5-carboxamide or rac-2-{5-[(3-ethoxypyridin-2-yl)oxy]pyridin-3-yl}-N-[(3R,6R)-6-(trifluoromethyl)piperidin-3-yl]pyrimidine-5-carboxamide] | – |
| 17 | 4.7 | 2.5 | 4.9 | – | CCOc1cccnc1Oc1cncc(-c2ncc(C(=O)N[C@@H]3CCOC3)cn2)c1 [WO2018033832 Ex. 2] | – |
| < 8 | 5.1 | – | – | 200 | CCOc1cccnc1Oc1cncc(-c2ncc(C(=O)NC3CCS(=O)(=O)C3)cn2)c1 (stereo not shown) [WO2018033832 Ex. 3.3] | – |

Second part, the compound before the results:

| Compound | microsomal CLint at 1 μM [1] [µL/min/mg] | hepatocyte CLint at 1 μM [2] [µL/min/1e6 cells] | pKa [3] | hepatocyte CLint at 1 μM [4] [µL/min/1e6 cells] | IC50 (human DGAT2 (hDGAT2)) [nM] | also measured |
| --- | --- | --- | --- | --- | --- | --- |
| CCOc1cccnc1Oc1cncc(-c2ncc(C(=O)NC3(CO)CCOC3)cn2)c1 (single isomer, unassigned) [WO2018033832 Ex. 6a] | 13 | < 3.8 | 2.3 | 3.2 | – | – |
| CCOc1cc(F)cnc1Oc1cncc(-c2ncc(C(=O)N[C@@H]3CNCC[C@@H]3F)cn2)c1 [Example 1, 2-{5-[(3-Ethoxy-5-fluoropyridin-2-yl)oxy]pyridin-3-yl}-N-[(3R,4S)-4-fluoropiperidin-3-yl]pyrimidine-5-carboxamide, bis(trifluoroacetate) Salt] | < 7 | < 2.7 | 7.7 | – | – | – |
| CCOc1cccnc1Oc1cncc(-c2ncc(C(=O)N[C@H]3CCOC3)cn2)c1 [WO2018033832 Ex. 1, Form 1] | – | – | – | – | – | Solubility ([5]; SGN pH 1.2 (simulated gastric fluid)): 78 µg/mL (≈ 191 µM); solubility at 25 h ([5]; fasted state simulated intestinal fluid (FaSSIF), pH 6.8, fassif, FaSSIF pH 6.8): 69 µg/mL (≈ 169 µM); solubility at 25 h ([5]; phosphate buffered saline, pH 6.8, aqueous buffer, PBS, pH 6.8): 43 µg/mL (≈ 106 µM) |
| CCOc1cccnc1Oc1cncc(-c2ncc(C(=O)N[C@H]3CCOC3)cn2)c1 [WO2018033832 Ex. 1, Form 2] | – | – | – | – | – | Solubility ([5]; FaSSIF pH 6.8): 93 µg/mL (≈ 228 µM); Solubility ([5]; PBS, pH 6.8): 60 µg/mL (≈ 147 µM) |
| CCOc1cccnc1Oc1cncc(-c2ncc(C(=O)N[C@H]3CCOC3)cn2)c1 [WO2018033832 Ex. 1] | 11 | < 3.8 | 2.4 | 3.9 | – | – |
| CCOc1cccnc1Oc1cncc(-c2ncc(C(=O)NC3(C)CCS(=O)(=O)C3)cn2)c1 (stereo not shown) [WO2018033832 Ex. 3.1] | 30 | 9.3 | – | – | 13 | – |
| CCOc1cc(F)cnc1Oc1cncc(-c2ncc(C(=O)N[C@H]3CCOC3)cn2)c1 [WO2018033832 Ex. 8] | < 9.6 | 9.3 | – | – | 3.3 | – |
